{"source": "patent US20110183946A1", "about": "“Complexes Comprising alpha2-Adrenergic Receptor Agonists and Methods of Providing Neuroprotection or Treating or Inhibiting Progression of Glaucoma” (priority 2007, published 2011)", "key": {"[1]": {"test": "Solubility of various brimonidine complexes in water at the resulting pH", "format": "physicochemical", "conditions": "for pH: resulting pH of the aqueous solubility sample", "experimental": "In this experiment, various complexes comprising Brimonidine and counterions of one of the following acids were prepared: pamoic acid, capric acid, sebacic acid, hippuric acid, naproxen, 1-hydroxy-2-naphthoic acid, palmitic acid, and stearic acid. Variations of the procedure described in the following disclosure may be made within the skill of a person of ordinary skill in the art without departing from the scope of the present invention. Brimonidine free base in a preselected solvent was heated to about 60-70° C. The organic acid in another portion of the solvent was added into the heated mixture or was included in the original mixture before heating. The heating of the combined mixture was continued for an additional period, which was not critical. In certain embodiments, an antisolvent was added to the combined mixture, preferably at a lower temperature, to effect a precipitation of the complex of brimonidine and the counterion. It may be advantageous to remove a portion of the solvent and antisolvent to assist the precipitation. In certain other embodiments, the heated combined mixture was cooled down to a lower temperature, such as room temperature (or below) to effect the precipitation of the complex of brimonidine and the counterion. The precipitate was then filtered and dried to yield the final complex."}, "physchem": {"test": "physchem", "experimental": "Brimonidine and pamoic acid, at a molar ratio of 1:1, were mixed and dispersed in N-methylpyrrolidone (“NMP”). The solution of brimonidine and pamoic acid in NMP was heated while stirring to dissolve brimonidine (the final temperature, typically less than 70° C., was chosen so as not to lose significant amount of solvent). […] The precipitation was allow to proceed; for example, for several hours or overnight. […] Other solvents, known to people skilled in the art, may be used for a compound that provides the counterion to the α2-adrenergic agonist, as appropriate."}, "[2]": {"conditions": "see US Patent Application Publication 2005/0244463 A1; cited from earlier work"}}, "note": "Where two headings read alike, the source gives them in different places."}
{"molecule": "naphthoate", "values": [{"measurement": "pH", "setting": "[1]", "value": "5.3-5.4"}]}
{"molecule": "Brc1c(NC2=NCCN2)ccc2nccnc12", "note": "[brimonidine free base, 5-bromo-N-(2-imidazolin-2-yl)-6-quinoxalinamine]", "values": [{"measurement": "solubility at 11 days", "setting": "physchem; water, thermodynamic from solid", "value": 215, "unit": "µg/mL"}, {"measurement": "solubility", "setting": "[1]; in water at the resulting pH (pH in column 1 of the same row)", "value": "48 to 200", "unit": "µg/mL"}, {"measurement": "pH", "setting": "[1]", "value": "8.1-8.9"}]}
{"molecule": "Brc1c(NC2=NCCN2)ccc2nccnc12.O=C(O)c1cc2ccccc2c(Cc2c(O)c(C(=O)O)cc3ccccc23)c1O", "note": "[brimonidine pamoate]", "values": [{"measurement": "Solubility in water", "setting": "physchem", "value": 207, "unit": "µg/mL"}, {"measurement": "pH", "setting": "[1]", "value": "7.2-7.5"}]}
{"molecule": "Brc1c(NC2=NCCN2)ccc2nccnc12.O=C(O)c1ccc2ccccc2c1O", "note": "[1-hydroxy-2-naphtoate]", "values": [{"measurement": "pH", "setting": "[1]", "value": 6.8}]}
{"molecule": "brimonidine tartrate", "values": [{"measurement": "Solubility in water", "setting": "physchem; water, after 11 days on a twist shaker", "value": 41588, "unit": "µg/mL"}, {"measurement": "Solubility in water", "setting": "[2]", "value": "about 34 mg/ml"}]}
